In one test the target is human PI3Kα (Homo sapiens (Human), UniProt P42336). The test can be described thus: Human PI3Kα activity test (luciferin/luciferase ATP consumption, KinaseGlo). The test is classed as biochemical. For orientation: Kinase-Glo measures the ATP left after a reaction by luminescence.
The test system of test [1] is Plasmodium falciparum (strain NF54). The test can be described thus: Antimalarial activity test: growth of Plasmodium falciparum in infected human erythrocytes, 3H-hypoxanthine incorporation. The test is classed as cell-based. The note with it: strain NF54 sensitive to chloroquine, 72 h total incubation. The method in brief:
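Chloroquine-sensitive NF54 parasites in human erythrocytes (1.25% hematocrit, 0.15% parasitemia) were grown in hypoxanthine-free RPMI 1640 with HEPES and Albumax II, with compound in twofold serial dilution, at 37 °C under 93% N2/4% CO2/3% O2. After 48 h, 3H-hypoxanthine (0.5 μCi) was added for 24 h. Scintillation counts versus drug-free control gave IC50.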

Setting [2] is: PI3Kα (p110α/p85α), 50 μM PIP2, 2 μM ATP, 90 minutes, read-out: IC50 Human PI3Kα.
[3] abbreviates: Plasmodium falciparum, Erythrocyte.

Where two headings read alike, the source gives them in different places. Some results are limits rather than exact numbers.

For orientation: IC50 means the concentration at which inhibition is half-maximal.

human PI3Kα, sequence (P42336 whole entry): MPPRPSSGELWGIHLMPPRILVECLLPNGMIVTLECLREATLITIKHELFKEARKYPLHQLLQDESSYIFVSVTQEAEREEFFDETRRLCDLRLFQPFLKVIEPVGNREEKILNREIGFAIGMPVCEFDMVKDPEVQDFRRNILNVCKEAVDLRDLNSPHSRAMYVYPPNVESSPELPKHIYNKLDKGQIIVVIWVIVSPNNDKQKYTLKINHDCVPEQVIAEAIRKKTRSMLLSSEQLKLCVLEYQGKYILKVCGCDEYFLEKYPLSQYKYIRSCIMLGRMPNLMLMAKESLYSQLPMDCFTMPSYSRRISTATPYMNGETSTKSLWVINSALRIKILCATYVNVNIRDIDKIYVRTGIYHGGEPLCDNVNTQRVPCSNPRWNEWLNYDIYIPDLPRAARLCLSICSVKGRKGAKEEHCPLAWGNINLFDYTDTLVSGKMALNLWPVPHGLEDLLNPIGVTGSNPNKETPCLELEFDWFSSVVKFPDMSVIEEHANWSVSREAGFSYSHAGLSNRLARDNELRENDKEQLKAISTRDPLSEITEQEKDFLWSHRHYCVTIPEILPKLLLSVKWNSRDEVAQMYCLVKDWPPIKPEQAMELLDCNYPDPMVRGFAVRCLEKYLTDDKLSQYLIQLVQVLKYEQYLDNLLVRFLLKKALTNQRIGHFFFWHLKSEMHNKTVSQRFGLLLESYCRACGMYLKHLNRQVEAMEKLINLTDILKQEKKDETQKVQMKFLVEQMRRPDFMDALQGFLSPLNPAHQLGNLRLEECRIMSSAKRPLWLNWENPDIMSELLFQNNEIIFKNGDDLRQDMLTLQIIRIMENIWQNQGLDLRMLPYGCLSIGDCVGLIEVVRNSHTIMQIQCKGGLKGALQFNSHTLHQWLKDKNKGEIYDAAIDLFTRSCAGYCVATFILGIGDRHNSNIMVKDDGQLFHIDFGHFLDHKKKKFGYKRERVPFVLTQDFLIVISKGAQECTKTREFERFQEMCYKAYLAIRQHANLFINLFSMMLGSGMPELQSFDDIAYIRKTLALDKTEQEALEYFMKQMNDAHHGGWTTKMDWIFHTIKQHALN
human PI3Kα, sequence (P27986 whole entry partner): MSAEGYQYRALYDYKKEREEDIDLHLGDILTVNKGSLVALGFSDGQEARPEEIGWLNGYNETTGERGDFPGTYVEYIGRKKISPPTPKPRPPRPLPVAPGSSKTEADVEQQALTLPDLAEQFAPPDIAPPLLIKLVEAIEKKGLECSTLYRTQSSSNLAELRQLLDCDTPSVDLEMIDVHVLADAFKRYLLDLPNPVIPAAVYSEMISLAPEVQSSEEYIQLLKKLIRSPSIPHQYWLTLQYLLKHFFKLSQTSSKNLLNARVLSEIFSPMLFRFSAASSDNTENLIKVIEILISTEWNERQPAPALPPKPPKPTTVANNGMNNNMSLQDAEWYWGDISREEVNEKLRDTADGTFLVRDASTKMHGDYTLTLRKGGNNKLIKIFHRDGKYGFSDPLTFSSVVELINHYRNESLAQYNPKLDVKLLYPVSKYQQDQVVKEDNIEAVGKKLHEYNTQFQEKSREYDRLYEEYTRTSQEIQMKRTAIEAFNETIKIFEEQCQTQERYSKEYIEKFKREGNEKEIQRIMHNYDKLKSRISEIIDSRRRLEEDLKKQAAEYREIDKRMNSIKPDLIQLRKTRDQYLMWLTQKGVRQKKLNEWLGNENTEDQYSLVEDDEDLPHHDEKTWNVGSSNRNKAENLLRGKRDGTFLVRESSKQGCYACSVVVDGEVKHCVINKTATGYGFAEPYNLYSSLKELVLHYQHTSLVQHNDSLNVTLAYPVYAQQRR
Procedure for human PI3Kα: The test uses a luciferin/luciferase system to measure the concentration of ATP and its consumption during the enzymatic reaction.
After 90 minutes, the reaction is quenched by adding 20 μl/well of KinaseGlo reagent (Promega V6713). After 10 minutes in the dark, the luminescence is read using a PHERAStar microplate reader (reading at 0.8 sec/well).

Turning to `O=C(CN1c2nc(N3CC4CCC(C3)O4)cc(=O)n2CC[C@H]1C(F)(F)F)c1ccccn1` [Compound 88, (8S)-2-(8-Oxa-3-azabicyclo[3.2.1]oct-3-yl)-9-(2-oxo-2-pyrid-2-ylethyl)-8-trifluoromethyl-6,7,8,9-tetrahydropyrimido[1,2-a]pyrimidin-4-one], the figures for the IC50 (at human PI3Kα (setting [2]); in test [1] (setting [3])) were 1300 nM and 140 nM, respectively.

Consider `CC(=O)N1CCC(CCN2c3nc(N4C[C@@H]5C[C@H]4CO5)cc(=O)n3CC[C@H]2C(F)(F)F)CC1` [Compound 89, (S)-9-[2-(1-Acetylpiperid-4-yl)ethyl]-2-(1S,4S)-2-oxa-5-azabicyclo[2.2.1]hept-5-yl-8-trifluoromethyl-6,7,8,9-tetrahydropyrimido[1,2-a]pyrimidin-4-one], for which the IC50 is 2800 nM at human PI3Kα (setting [2]) and 3.4 nM in test [1] (setting [3]).

On to `O=CN1CCC(CCN2c3nc(N4C[C@@H]5C[C@H]4CO5)cc(=O)n3CC[C@H]2C(F)(F)F)CC1` [Compound 90, 4-[2-((2S)-8-(1S,4S)-2-oxa-5-azabicyclo[2.2.1]hept-5-yl-6-oxo-2-trifluoromethyl-3,4-dihydro-2H,6H-pyrimido[1,2-a]pyrimidin-1-yl)ethyl]piperidine-1-carbaldehyde], for which the IC50 on human PI3Kα (setting [2]) came out at 2400 nM; in test [1] (setting [3]) it was 2 nM.

With `CCOC(=O)N1CCC(C(=O)CN2c3nc(N4C[C@@H]5C[C@H]4CO5)cc(=O)n3CC[C@H]2C(F)(F)F)CC1` [Compound 91, 4-[2-((S)-8-(1S,4S)-2-Oxa-5-azabicyclo[2.2.1]hept-5-yl-6-oxo-2-trifluoromethyl-3,4-dihydro-2H,6H-pyrimido[1,2-a]pyrimidin-1-yl)acetyl]piperidine-1-carboxylic acid ethyl ester], the IC50 at human PI3Kα (setting [2]) is greater than 10000 nM; in test [1], 25 nM.

Consider `O=c1cc(N2C[C@@H]3C[C@H]2CO3)nc2n1CC[C@@H](C(F)(F)F)N2CCC1CCOCC1` [Compound 92, (8S)-2-(1S,4S)-2-oxa-5-azabicyclo[2.2.1]hept-5-yl-9-[2-(tetrahydropyran-4-yl)ethyl]-8-trifluoromethyl-6,7,8,9-tetrahydropyrimido[1,2-a]pyrimidin-4-one], for which the values for the IC50 (on human PI3Kα (setting [2]); in test [1] (setting [3])) were 450 nM and 4 nM, respectively.

For the compound `O=c1cc(N2C[C@@H]3C[C@H]2CO3)nc2n1CC[C@@H](C(F)(F)F)N2CC1CCOCC1` [Compound 93, (8S)-2-(1S,4S)-2-oxa-5-azabicyclo[2.2.1]hept-5-yl-9-(tetrahydropyran-4-ylmethyl)-8-trifluoromethyl-6,7,8,9-tetrahydropyrimido[1,2-a]pyrimidin-4-one], the figures for the IC50 (on human PI3Kα (setting [2]); in test [1] (setting [3])) were 780 nM and 4 nM, respectively.

As for `CC(=O)N1CCC(CN2c3nc(N4C[C@@H]5C[C@H]4CO5)cc(=O)n3CC[C@H]2C(F)(F)F)CC1` [Compound 94, (8S)-9-(1-Acetylpiperid-4-ylmethyl)-2-(1S,4S)-2-oxa-5-azabicyclo[2.2.1]hept-5-yl-8-trifluoromethyl-6,7,8,9-tetrahydropyrimido[1,2-a]pyrimidin-4-one], the values for the IC50 (at human PI3Kα (setting [2]); in test [1] (setting [3])) were 130 nM and 9 nM, respectively.

For the compound `O=CN1CCC(CN2c3nc(N4C[C@@H]5C[C@H]4CO5)cc(=O)n3CC[C@H]2C(F)(F)F)CC1` [Compound 95, 4-((2S)-8-(1S,4S)-2-oxa-5-azabicyclo[2.2.1]hept-5-yl-6-oxo-2-trifluoromethyl-3,4-dihydro-2H,6H-pyrimido[1,2-a]pyrimidin-1-ylmethyl)piperidine-1-carbaldehyde], the results for the IC50 (at human PI3Kα (setting [2]); in test [1] (setting [3])) were 180 nM and 7 nM, respectively.

With `O=c1cc(N2C[C@@H]3C[C@H]2CO3)nc2n1CC[C@@H](C(F)(F)F)N2CC(O)(C(F)(F)F)C(F)(F)F` [Compound 96, (8S)-2-(1S,4S)-2-oxa-5-azabicyclo[2.2.1]hept-5-yl-9-(3,3,3-trifluoro-2-hydroxy-2-trifluoromethylpropyl)-8-trifluoromethyl-6,7,8,9-tetrahydropyrimido[1,2-a]pyrimidin-4-one], the half-inhibitory concentration (IC50) at human PI3Kα (setting [2]) came to 8500 nM; in test [1] (setting [3]), 170 nM.

On to `O=c1cc(N2C[C@@H]3C[C@H]2CO3)nc2n1CC[C@@H](C(F)(F)F)N2CCC(O)(C(F)(F)F)C(F)(F)F` [Compound 97, (8S)-2-(1S,4S)-2-Oxa-5-azabicyclo[2.2.1]hept-5-yl-9-(4,4,4-trifluoro-3-hydroxy-3-trifluoromethylbutyl)-8-trifluoromethyl-6,7,8,9-tetrahydropyrimido[1,2-a]pyrimidin-4-one], for which the IC50 turned out to be 440 nM on human PI3Kα (setting [2]) and 30 nM in test [1].

In the case of `O=C(CN1c2nc(N3C[C@@H]4C[C@H]3CO4)cc(=O)n2CC[C@H]1C(F)(F)F)N1CC2CCC(C1)O2` [Compound 98, (8S)-2-(1S,4S)-2-Oxa-5-azabicyclo[2.2.1]hept-5-yl-9-[2-(8-oxa-3-azabicyclo[3.2.1]oct-3-yl)-2-oxoethyl]-8-trifluoromethyl-6,7,8,9-tetrahydropyrimido[1,2-a]pyrimidin-4-one], the figures for the IC50 (at human PI3Kα (setting [2]); in test [1]) were greater than 10000 nM and 140 nM, respectively.

Take `O=C(CN1c2nc(N3C[C@@H]4C[C@H]3CO4)cc(=O)n2CC[C@H]1C(F)(F)F)N1C2CCC1COC2` [Compound 99, (8S)-2-(1S,4S)-2-oxa-5-azabicyclo[2.2.1]hept-5-yl-9-[2-(3-oxa-8-azabicyclo[3.2.1]oct-8-yl)-2-oxoethyl]-8-trifluoromethyl-6,7,8,9-tetrahydropyrimido[1,2-a]pyrimidin-4-one]: the IC50 is greater than 10000 nM against human PI3Kα and 170 nM in test [1] (setting [3]).

On to `O=c1cc(N2C[C@@H]3C[C@H]2CO3)nc2n1CC[C@@H](C(F)(F)F)N2CCC1(O)CCCC1` [Compound 100, (8S)-9-[2-(1-Hydroxycyclopentyl)ethyl]-2-(1S,4S)-2-oxa-5-azabicyclo[2.2.1]hept-5-yl-8-trifluoromethyl-6,7,8,9-tetrahydropyrimido[1,2-a]pyrimidin-4-one], for which the results for the IC50 (on human PI3Kα (setting [2]); in test [1] (setting [3])) were 1980 nM and 9 nM, respectively.

Turning to `O=c1cc(N2C[C@@H]3C[C@H]2CO3)nc2n1CC[C@@H](C(F)(F)F)N2CC1(O)CCCC1` [Compound 101, (8S)-9-(1-Hydroxycyclopentylmethyl)-2-(1S,4S)-2-oxa-5-azabicyclo[2.2.1]hept-5-yl-8-trifluoromethyl-6,7,8,9-tetrahydropyrimido[1,2-a]pyrimidin-4-one], the IC50 at human PI3Kα (setting [2]) is 450 nM; in test [1] (setting [3]), 10 nM.

`O=c1cc(N2C[C@@H]3C[C@H]2CO3)nc2n1CC[C@@H](C(F)(F)F)N2CCC(O)(C1CC1)C1CC1` [Compound 102, (8S)-9-(3,3-Dicyclopropyl-3-hydroxypropyl)-2-(1S,4S)-2-oxa-5-azabicyclo[2.2.1]hept-5-yl-8-trifluoromethyl-6,7,8,9-tetrahydropyrimido[1,2-a]pyrimidin-4-one]: the IC50 at human PI3Kα (setting [2]) is 2500 nM; in test [1] (setting [3]), 5 nM.

Take `O=c1cc(N2C[C@@H]3C[C@H]2CO3)nc2n1CC[C@@H](C(F)(F)F)N2CC(O)(C1CC1)C1CC1` [Compound 103, (8S)-9-(2,2-Dicyclopropyl-2-hydroxyethyl)-2-(1S,4S)-2-oxa-5-azabicyclo[2.2.1]hept-5-yl-8-trifluoromethyl-6,7,8,9-tetrahydropyrimido[1,2-a]pyrimidin-4-one]: the IC50 at human PI3Kα (setting [2]) turned out to be 840 nM; in test [1] (setting [3]) it was 75 nM.

The record behind these values is patent publication US9321790B2, “Pyrimidinone derivatives as antimalarial agents” (SANOFI, priority 2012, dated 2016).
